Reference: PubChem BioAssay (NCI)
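Values below derive from 48-hour exposures of cells grown in 96-well plates, with endpoints linearly interpolated between the two concentrations bracketing the appropriate inhibition level. Abbreviation: GI50, concentration required for 50% inhibition of growth. At the TGI there is no net growth.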

Experiments:
Assay in all cases: growth of human tumour cells (NCI), 48 h
A498 renal = tested on: A498 renal
A549 NSCLC = tested on: A549 NSCLC
EKVX NSCLC = tested on: EKVX NSCLC
HCT-15 colon = tested on: HCT-15 colon
HT29 colon = tested on: HT29 colon
LOX IMVI melanoma = tested on: LOX IMVI melanoma
M14 melanoma = tested on: M14 melanoma
NCI-H23 lung = tested on: NCI-H23 lung
OVCAR-8 ovarian = tested on: OVCAR-8 ovarian
SK-MEL-28 melanoma = tested on: SK-MEL-28 melanoma

SMILES	GI50 (A498 renal) [µM]	TGI (A498 renal) [µM]	GI50 (A549 NSCLC) [µM]	TGI (A549 NSCLC) [µM]	GI50 (EKVX NSCLC) [µM]	TGI (EKVX NSCLC) [µM]	GI50 (HCT-15 colon) [µM]	TGI (HCT-15 colon) [µM]	GI50 (HT29 colon) [µM]	TGI (HT29 colon) [µM]	GI50 (LOX IMVI melanoma) [µM]	TGI (LOX IMVI melanoma) [µM]	GI50 (M14 melanoma) [µM]	TGI (M14 melanoma) [µM]	GI50 (NCI-H23 lung) [µM]	TGI (NCI-H23 lung) [µM]	GI50 (OVCAR-8 ovarian) [µM]	TGI (OVCAR-8 ovarian) [µM]	GI50 (SK-MEL-28 melanoma) [µM]	TGI (SK-MEL-28 melanoma) [µM]
COc1ccc(C2C3=C(COC3=O)N(CCO)c3cc4c(cc32)CCC4)cc1 (stereo not given)	2.36	> 50	3.84	> 50	13.5	> 50	6.04	> 50	1.7	24.9	3.1	> 50	2.32	21.1	7.05	> 50	14.2	> 50	5.31	> 50
CC1(C2CCC3(C)C(C2)C3Sc2ccccc2)OCCO1 (stereo not given)		36.4		68		66.2		> 100		41.4		49.6		> 100		66.3		> 100		63.6
COc1cc(CCc2ccncc2)cc(OC)c1OC		> 100		> 100		> 100		> 100		> 100		> 100		> 100		> 100		> 100		> 100
C=C(CN1CCN(c2ccc(F)c(Cl)c2)CC1)c1ccc(C(=O)Nc2ccccc2N)cc1	9.67	44.1	3.81	24.5	15.8	> 100	5.38	> 100	2.32	> 100	3.47	12.5	2.65	11.6	5.27	29.7	5.42	> 100	0.529	> 100
CC(C)OP(=O)(OC(C)C)/C(C#N)=C/c1c[nH]c2ccccc12		> 100		> 100		> 100		> 100		> 100		> 100		> 100		> 100		> 100		> 100
C=C1C(=O)OC2(C)CCC1CC1OC1(C)CCC=C(C)CCC2O (stereo not given)		> 100		> 100		> 100		> 100		> 100		> 100		> 100		> 100		> 100		> 100
CNC(=O)c1cc(-c2ccc(F)cc2)cc(-c2ccc(S(=O)(=O)N3CCCC3)cc2)c1N	5.25	> 25	11.9	> 25	10.2	> 25	9.68	> 25	15.7	> 25	> 25	> 25	> 25	> 25	> 25	> 25	> 25	> 25	> 25	> 25
CNc1nc(-c2ccc3c(N)n[nH]c3c2)cc(N2C[C@@H](C(=O)NC3CCCCC3)CC[C@H]2C)n1	0.301	3.02	3.37	20.8	2.12	15.4	4.33	19.4	2.25	17.1	3.8	19.4	3.02	20.1	3.69	20.1	9.16	24.7	1.68	15.8
O=C1/C(=C/c2ccc(O)cc2)Oc2ccccc21		> 100		> 100		> 100		> 100		> 100		> 100		> 100		> 100		> 100		> 100
CC1=C(SCCC(=O)OC(C[Se]C2=C(C)C(=O)c3ccccc3C2=O)C(=O)NC(C)(C)C)C(=O)c2ccccc2C1=O (stereo not given)	1.55	2.97	1.11	4.59	1.58	4.48	1.47	3.11	1.78	3.39	1.4	2.9	1.32	2.67	1.13	2.69	1.28	2.74	1.78	3.16
COC(=O)C#CC(N)=O		> 100		> 100		> 100		> 100		> 100		> 50.4		42.2		> 100		> 94.9		47.5
NC1=C(O)C(=O)C(c2c[nH]c3ccc(OCc4ccccc4)cc23)O1 (stereo not given)		> 100		> 100		> 100		> 100		> 100		> 100		> 100		> 100		> 100		> 100
CCOC(=O)N(O)c1ccc(/C=C/c2ccccc2)cc1	0.146	0.291	2.98	41.9	9.05	63.6	9.18	37.4	8.3	31.5	7.22	20.6	7.17	26.8	5.77	37.1	10.9	> 100	17.6	59.8
